These results are taken from patent publication US4393225A, “AI-77 Compounds and pharmaceutically acceptable salts thereof” (Asahi Kasei Kogyo Kabushiki Kaisha, priority 1979, dated 1983).

The first experiment relates to ulcer. In words: Anti-ulcer test (restraint and water immersion ulcer in rats, i.p.). It is filed as in vivo, Male Wistar rats. As to conditions: Rattus norvegicus, ip; 25 mg/kg i.p.; read-out: % Inhibition of Ulcer. The gist of the method: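 Male Wistar rats (~150 g), fasted 24 h, dosed i.p. with compound in physiological saline; 1 h later restrained and immersed to xiphisternum in 21 °C water for 6 h. Stomachs examined microscopically, ulcers scored 0–3, and percent inhibition calculated.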
On to `CCCCCCCC(=O)NC(CC(N)=O)C(O)C(O)C(=O)NC(CC(C)C)C1Cc2cccc(O)c2C(=O)O1` (centres unmarked) [VII-28-3], for which the inhibition in vivo at 25 mg/kg was 66%. The same measure, in the same setting: as for `CC(=O)NC(CC(N)=O)C(O)C(O)C(=O)NC(CC(C)C)C1Cc2cccc(O)c2C(=O)O1` (centres unmarked) [VII-28-1], the figure is 78%. Turning to `CCCCOc1cccc2c1C(=O)OC(C(CC(C)C)NC(=O)C(OCCCC)C(O)C(CC(N)=O)NC)C2` (centres unmarked) [VII-25-3], the inhibition in vivo at 25 mg/kg amounted to 56%. On the same count and under the same terms, as for `CNC(CC(N)=O)C(O)C(OC(C)=O)C(=O)NC(CC(C)C)C1Cc2cccc(O)c2C(=O)O1` (centres unmarked) [VII-20-1], the figure is 89%; as for `CC(C)CC(NC(=O)C(O)C(O)C(N)CC(=O)NCCc1ccccc1)C1Cc2cccc(O)c2C(=O)O1` (centres unmarked) [VII-1-13], 89%. On to `CC(C)CC(NC(=O)C(O)C(O)C(N)CC(=O)NCc1ccc2ccccc2c1)C1Cc2cccc(O)c2C(=O)O1` (centres unmarked) [VII-1-18], for which the inhibition in vivo at 25 mg/kg worked out at 78%. Turning to `CCCCNC(=O)CC(N)C(O)C(O)C(=O)NC(CC(C)C)C1Cc2cccc(OCC)c2C(=O)O1` (centres unmarked) [VII-5-3], the inhibition in vivo at 25 mg/kg was found to be 78%.

The same experiment, now with this note: Rattus norvegicus, ip; 50 mg/kg i.p.; read-out: % Inhibition of Ulcer.
On to `CC(C)CC(NC(=O)C(O)C1OC(=O)CC1N)C1Cc2cccc(OCCc3ccccc3)c2C(=O)O1` (centres unmarked) [IIIa-13-12], for which the inhibition in vivo at 50 mg/kg was 89%. Take `CC(C)CNC1CC(=O)OC1C(O)C(=O)NC(CC(C)C)C1Cc2cccc(OCC(C)C)c2C(=O)O1` (centres unmarked) [IIIa-22-4]: the inhibition in vivo at 50 mg/kg worked out at 94%.

With `CCCCCC(=O)OC(C)CC(=O)NC1CC(=O)OC1C(O)C(=O)NC(CC(C)C)C1Cc2cccc(OCC)c2C(=O)O1` (centres unmarked) [IIIa-5-48], the inhibition in vivo at 50 mg/kg amounted to 33%. For `CCCC=Cc1ccc(COc2cccc3c2C(=O)OC(C(CC(C)C)NC(=O)C(O)C2OC(=O)CC2NC(=O)CCC)C3)cc1` (centres unmarked) [IIIa-5-120], the inhibition in vivo at 50 mg/kg stood at 33%. For the molecule `CCCCCCCCCCCCCCCCCCNC1CC(=O)OC1C(OCCCC)C(=O)NC(CC(C)C)C1Cc2cccc(OC(C)=O)c2C(=O)O1` (centres unmarked) [IIIa-26-3], the inhibition in vivo at 50 mg/kg worked out at 44%.

Regarding `C/C=C/C(=O)NC1CC(=O)OC1C(O)C(=O)NC(CC(C)C)C1Cc2cccc(OCC)c2C(=O)O1` (centres unmarked) [IIIa-5-53], the inhibition in vivo at 50 mg/kg was determined as 33%. `CCCCCCCCCCCCCCCCCC(=O)OC(C(=O)NC(CC(C)C)C1Cc2cccc(OCC)c2C(=O)O1)C1OC(=O)CC1N` (centres unmarked) [IIIa-14-3]: the inhibition in vivo at 50 mg/kg turned out to be 44%. On the same count and under the same terms, as for `C#CC(=O)NC1CC(=O)OC1C(O)C(=O)NC(CC(C)C)C1Cc2cccc(O)c2C(=O)O1` (centres unmarked) [IIIa-1-52], the figure is 66%; as for `CC(=O)OC(C(=N)NC(CC(C)C)C1Cc2cccc(O)c2C(=O)O1)C(O)C(CC(=O)O)NCCC(C)C` (centres unmarked) [Vb-11-2], 66%; as for `CCOc1cccc2c1C(=O)OC(C(CC(C)C)NC(=O)C(O)C1OC(=O)CC1NC(=O)C(Cl)(Cl)Cl)C2` (centres unmarked) [IIIa-5-13], 33%.

Take `CCCCCSc1ccc(C(=O)NC2CC(=O)OC2C(O)C(=O)NC(CC(C)C)C2Cc3cccc(OCC)c3C(=O)O2)cc1` (centres unmarked) [IIIa-5-46]: the inhibition in vivo at 50 mg/kg is 33%. `CC(C)CC(NC(=O)C(O)C1C=CC(=O)O1)C1Cc2cccc(OCCCBr)c2C(=O)O1` (centres unmarked) [IVa-4-19]: the inhibition in vivo at 50 mg/kg worked out at 44%. As to `CCOc1cccc2c1C(=O)OC(C(CC(C)C)NC(=O)C(O)C1OC(=O)CC1NC(=O)c1cocc1C(=O)O)C2` (centres unmarked) [IIIa-5-59], the inhibition in vivo at 50 mg/kg came out at 44%. Turning to `CCCC=Cc1ccc(C(=O)NC2CC(=O)OC2C(O)C(=O)NC(CC(C)C)C2Cc3cccc(O)c3C(=O)O2)cc1` (centres unmarked) [IIIa-1-77], the inhibition in vivo at 50 mg/kg came to 66%. Turning to `CC(C)CC(NC(=O)C(O)C1C=CC(=O)O1)C1Cc2cccc(OCC3CCCO3)c2C(=O)O1` (centres unmarked) [IVa-4-14], the inhibition in vivo at 50 mg/kg was found to be 33%. On the same count and under the same terms, as for `CCC(=O)C(=O)NC1CC(=O)OC1C(O)C(=O)NC(CC(C)C)C1Cc2cccc(O)c2C(=O)O1` (centres unmarked) [IIIa-1-32], the figure is 66%; as for `CCOc1cccc2c1C(=O)OC(C(CC(C)C)NC(=O)C(O)C1OC(=O)CC1NC(=O)CC(C)OC)C2` (centres unmarked) [IIIa-5-41], 33%; as for `CCCCCCC(=O)Oc1cccc2c1C(=O)OC(C(CC(C)C)NC(=O)C(O)C1C=CC(=O)O1)C2` (centres unmarked) [IVa-3-6], 33%. With `CCCCNC(CC(=O)O)C(O)C(OC(=O)CCC)C(=N)NC(CC(C)C)C1Cc2cccc(O)c2C(=O)O1` (centres unmarked) [Vb-11-3], the inhibition in vivo at 50 mg/kg stood at 72%. In the case of `CC(C)CC(NC(=O)C(O)C1OC(=O)CC1NCc1ccccc1)C1Cc2cccc(O)c2C(=O)O1` (centres unmarked) [IIIa-18-14], the inhibition in vivo at 50 mg/kg amounted to 89%. As for `CCOc1cccc2c1C(=O)OC(C(CC(C)C)NC(=O)C(O)C1OC(=O)CC1NC(=O)c1ccc(C)cc1)C2` (centres unmarked) [IIIa-5-37], the inhibition in vivo at 50 mg/kg was determined as 44%. Consider `CC(C)CC(NC(=O)C(O)C1OC(=O)CC1NC(=O)C=Cc1ccoc1)C1Cc2cccc(O)c2C(=O)O1` (centres unmarked) [IIIa-1-57], for which the inhibition in vivo at 50 mg/kg stood at 56%. For the molecule `CCCCOC(C(=N)NC(CC(C)C)C1Cc2cccc(OCc3ccccc3)c2C(=O)O1)C(O)C(N)CC(=O)O` (centres unmarked) [Vb-7-3], the inhibition in vivo at 50 mg/kg turned out to be 56%.

On to `CC(=O)OC(C(=O)NC(CC(C)C)C1Cc2cccc(O)c2C(=O)O1)C1C=CC(=O)O1` (centres unmarked) [IVa-1-1], for which the inhibition in vivo at 50 mg/kg is 44%.

Take `CCCCCSCCNC1CC(=O)OC1C(O)C(=O)NC(CC(C)C)C1Cc2cccc(OCC)c2C(=O)O1` (centres unmarked) [IIIa-22-40]: the inhibition in vivo at 50 mg/kg worked out at 94%. The same measure, in the same setting: as for `CCCCC(=O)Oc1cccc2c1C(=O)OC(C(CC(C)C)NC(=O)C(O)C1C=CC(=O)O1)C2` (centres unmarked) [IVa-3-4], the figure is 33%. With `CC(C)CC(NC(=O)C(O)C1OC(=O)CC1N)C1Cc2cccc(OC3CC3)c2C(=O)O1` (centres unmarked) [IIIa-13-10], the inhibition in vivo at 50 mg/kg worked out at 94%. On to `CC(C)CC(NC(=O)C(O)C1OC(=O)CC1N)C1Cc2cccc(OCC3CCCCC3)c2C(=O)O1` (centres unmarked) [IIIa-13-11], for which the inhibition in vivo at 50 mg/kg is 78%.

For `COC(=O)C1CCC(C(=O)NC2CC(=O)OC2C(O)C(=O)NC(CC(C)C)C2Cc3cccc(O)c3C(=O)O2)CC1` (centres unmarked) [IIIa-1-68], the inhibition in vivo at 50 mg/kg was found to be 66%. Same read-out and setting: to `CCOc1cccc2c1C(=O)OC(C(CC(C)C)NC(=O)C(O)C1OC(=O)CC1NC(=O)c1ccc(C(=O)OC)cc1)C2` (centres unmarked) [IIIa-5-49] belongs 33%; to `CCC(=O)OC(C(=N)NC(CC(C)C)C1Cc2cccc(O)c2C(=O)O1)C(O)C(N)CC(=O)O` (centres unmarked) [Vb-2-1], 66%; to `CCOc1cccc2c1C(=O)OC(C(CC(C)C)NC(=O)C(OC(=O)C(C)C)C1OC(=O)CC1N)C2` (centres unmarked) [IIIa-14-2], 56%.

With `CCOc1cccc2c1C(=O)OC(C(CC(C)C)NC(=O)C(OC(=O)C(C)C)C1OC(=O)CC1NC)C2` (centres unmarked) [IIIa-32-2], the inhibition in vivo at 50 mg/kg worked out at 44%.

On to `CC(=O)NC1CC(=O)OC1C(OC(C)=O)C(=O)NC(CC(C)C)C1Cc2cccc(OCC(C)C)c2C(=O)O1` (centres unmarked) [IIIa-6-2], for which the inhibition in vivo at 50 mg/kg is 33%. With `CCCCCC(=O)OC(C)CC(=O)NC1CC(=O)OC1C(O)C(=O)NC(CC(C)C)C1Cc2cccc(O)c2C(=O)O1` (centres unmarked) [IIIa-1-49], the inhibition in vivo at 50 mg/kg worked out at 56%.

On to `CCCCOc1cccc2c1C(=O)OC(C(CC(C)C)NC(=O)C(O)C1OC(=O)CC1NC(C)=O)C2` (centres unmarked) [IIIa-5-3], for which the inhibition in vivo at 50 mg/kg was 44%. For the molecule `CCCCCCCCCCCCCCCCCC(=O)NC1CC(=O)OC1C(OC(C)=O)C(=O)NC(CC(C)C)C1Cc2cccc(O)c2C(=O)O1` (centres unmarked) [IIIa-2-4], the inhibition in vivo at 50 mg/kg was found to be 33%.
